Reference: article PMC9072010, “Synthesis and bioevaluation of thienopyrimidines bearing a pyrazoline unit as selective PI3Kα inhibitors” (RSC Advances, 2019)

How the values were obtained:
A549 cancer cell lines [1] = assay: MTT antiproliferative assay, A549; format: cell-based, human
MCF-7 cancer cell lines = assay: MTT antiproliferative assay, MCF-7; format: cell-based, human
HepG2 cancer cell lines = assay: MTT antiproliferative assay, HepG2; format: cell-based, human
PI3Kα = PI3Kα (Homo sapiens, UniProt P42336); assay: Kinase-Glo Luminescent Kinase Assay, PI3Kα; format: biochemical; conditions: average of two separate determinations
Chain of PI3Kα (P42336 whole entry): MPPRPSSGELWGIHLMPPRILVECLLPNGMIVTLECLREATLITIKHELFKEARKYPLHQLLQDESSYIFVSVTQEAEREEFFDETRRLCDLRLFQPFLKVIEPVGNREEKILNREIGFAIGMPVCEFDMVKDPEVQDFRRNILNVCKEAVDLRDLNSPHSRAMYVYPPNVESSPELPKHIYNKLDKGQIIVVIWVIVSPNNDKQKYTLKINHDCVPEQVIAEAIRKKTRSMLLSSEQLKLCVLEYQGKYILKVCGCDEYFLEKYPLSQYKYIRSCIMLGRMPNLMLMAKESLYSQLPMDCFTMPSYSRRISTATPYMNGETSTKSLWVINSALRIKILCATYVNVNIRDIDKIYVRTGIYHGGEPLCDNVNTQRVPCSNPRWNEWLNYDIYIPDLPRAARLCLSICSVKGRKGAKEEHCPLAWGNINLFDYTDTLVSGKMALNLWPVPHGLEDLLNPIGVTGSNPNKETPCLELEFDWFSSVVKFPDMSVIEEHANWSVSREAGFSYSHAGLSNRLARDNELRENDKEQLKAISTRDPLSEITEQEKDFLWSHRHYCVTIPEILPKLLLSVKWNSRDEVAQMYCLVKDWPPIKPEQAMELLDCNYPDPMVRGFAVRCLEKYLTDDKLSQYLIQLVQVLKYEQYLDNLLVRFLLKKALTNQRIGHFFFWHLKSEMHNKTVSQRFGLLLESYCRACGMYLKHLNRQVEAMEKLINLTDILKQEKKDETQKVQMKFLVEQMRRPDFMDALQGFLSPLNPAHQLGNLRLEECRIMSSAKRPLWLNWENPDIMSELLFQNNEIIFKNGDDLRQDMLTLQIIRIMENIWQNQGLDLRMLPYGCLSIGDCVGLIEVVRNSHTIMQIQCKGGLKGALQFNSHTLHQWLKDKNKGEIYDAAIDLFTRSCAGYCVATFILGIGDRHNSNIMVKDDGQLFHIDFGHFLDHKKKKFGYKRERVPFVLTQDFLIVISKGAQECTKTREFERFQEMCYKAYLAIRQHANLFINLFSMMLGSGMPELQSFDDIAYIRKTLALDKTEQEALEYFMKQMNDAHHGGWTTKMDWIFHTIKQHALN
Chain of PI3Kα (P27986 whole entry partner): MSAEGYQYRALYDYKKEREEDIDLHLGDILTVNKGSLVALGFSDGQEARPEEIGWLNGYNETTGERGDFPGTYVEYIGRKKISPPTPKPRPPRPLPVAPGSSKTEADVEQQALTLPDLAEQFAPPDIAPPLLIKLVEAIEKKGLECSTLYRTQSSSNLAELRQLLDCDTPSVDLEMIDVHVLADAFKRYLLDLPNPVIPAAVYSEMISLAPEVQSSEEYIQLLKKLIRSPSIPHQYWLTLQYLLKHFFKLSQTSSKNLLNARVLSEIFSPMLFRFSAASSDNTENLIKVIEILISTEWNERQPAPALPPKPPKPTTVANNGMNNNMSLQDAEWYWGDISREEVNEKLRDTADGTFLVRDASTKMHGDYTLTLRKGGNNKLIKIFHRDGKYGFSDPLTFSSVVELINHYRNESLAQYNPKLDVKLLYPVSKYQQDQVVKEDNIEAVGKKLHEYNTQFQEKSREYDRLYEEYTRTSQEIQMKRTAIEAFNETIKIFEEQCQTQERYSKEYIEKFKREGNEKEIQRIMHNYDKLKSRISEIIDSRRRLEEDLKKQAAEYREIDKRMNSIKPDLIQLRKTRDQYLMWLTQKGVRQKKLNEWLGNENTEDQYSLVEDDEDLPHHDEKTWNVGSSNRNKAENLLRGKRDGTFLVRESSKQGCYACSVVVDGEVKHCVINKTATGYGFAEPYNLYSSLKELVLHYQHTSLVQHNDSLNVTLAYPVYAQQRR
Method: The experiment was conducted according to the method reported by our research group.[17]

mTOR = mTOR (Homo sapiens, UniProt P42345); assay: Kinase-Glo Luminescent Kinase Assay, mTOR; format: biochemical; conditions: average of two separate determinations
A549 cells = assay: Annexin V-FITC/PI double staining by flow cytometry; format: cell-based, human
A549 cancer cell lines [2] = assay: Acridine orange (AO) single staining; format: cell-based, human; conditions: A549, fluorescence microscopy, Fig. 4
Method: In order to investigate whether the target compound 13f could induce the apoptosis of A549 cancer cell lines, acridine orange (AO) staining assay was carried out. […] But in the test group (Fig. 4b), the cell shape was abnormal with cell shrinkage, chromatin condensation after compound 13f acted on the A549 cells.
The cancer cell apoptotic of target compound 13f were evaluated with A549 cancer cell lines by acridine orange single staining. The experiment was conducted according to the method reported by our research group.[18]

[3] = Homo sapiens, A549, Table 1, average of two separate determinations
[4] = Homo sapiens, MCF7, Table 1, average of two separate determinations
[5] = Homo sapiens, HepG2, Table 1, average of two separate determinations
[6] = Homo sapiens, A549, Table 2, average of two separate determinations
[7] = Homo sapiens, MCF7, Table 2, average of two separate determinations
[8] = Homo sapiens, HepG2, Table 2, average of two separate determinations
[9] = Table 2, average of two separate determinations

Compound	IC50 (A549 cancer cell lines [1]; [3]) [µM]	IC50 (MCF-7 cancer cell lines; [4]) [µM]	IC50 (HepG2 cancer cell lines; [5]) [µM]	melting point [°C]	IC50 (A549 cancer cell lines [1]; [6]) [µM]	IC50 (MCF-7 cancer cell lines; [7]) [µM]	IC50 (HepG2 cancer cell lines; [8]) [µM]	also measured
c1ccc(-c2ccnn2-c2nc(N3CCOCC3)c3sccc3n2)cc1 [Compound 4a, 4-(2-(5-Phenyl-1H-pyrazol-1-yl)thieno[3,2-d]pyrimidin-4-yl)morpholine]	> 100	> 100	> 100	243.6 to 244.8				
Clc1ccc(-c2ccnn2-c2nc(N3CCOCC3)c3sccc3n2)cc1 [Compound 4d, 4-(2-(5-(4-Chlorophenyl)-1H-pyrazol-1-yl)thieno[3,2-d]pyrimidin-4-yl)morpholine]	> 100	> 100	> 100	250 to 251				
Cc1ccc(-c2ccnn2-c2nc(N3CCOCC3)c3ccsc3n2)cc1 [Compound 7b, 4-(2-(5-(p-Tolyl)-1H-pyrazol-1-yl)thieno[2,3-d]pyrimidin-4-yl)morpholine]	35 ± 0.97	30.9 ± 1.05	33.9 ± 1.13	286 to 289				
CN(C)CCN(C)c1nc(N2N=C(c3ccc(Cl)c(Cl)c3)CC2c2ccc(Br)cc2)nc2sccc12 (stereo not drawn) [Compound 13b, N ^1-(2-(5-(4-Bromophenyl)-3-(3,4-dichlorophenyl)-4,5-dihydro-1H-pyrazol-1-yl)thieno[2,3-d]pyrimidin-4-yl)-N^1,N^2,N^2-trimethylethane-1,2-diamine]				291 to 294	17.43 ± 0.13	12.8 ± 0.23	12.9 ± 0.64	
CN(C)CCN(C)c1nc(N2N=C(c3ccc(F)cc3)CC2c2ccc(F)cc2)nc2sccc12 (stereo not drawn) [Compound 13c, N ^1-(2-(3,5-Bis(4-fluorophenyl)-4,5-dihydro-1H-pyrazol-1-yl)thieno[2,3-d]pyrimidin-4-yl)-N^1,N^2,N^2-tri-methylethane-1,2-diamine]				256 to 257	9.23 ± 0.02	6.51 ± 0.31	6.66 ± 0.13	IC50 (PI3Kα): 4.62 ± 0.54 µM; IC50 (mTOR): > 10 µM
Cc1ccc(C2CC(c3ccc(Cl)c(Cl)c3)=NN2c2nc(N(C)CCN(C)C)c3ccsc3n2)cc1 (stereo not drawn) [Compound 13g, N ^1-(2-(3-(3,4-Dichlorophenyl)-5-(p-tolyl)-4,5-dihydro-1H-pyrazol-1-yl)thieno[2,3-d]pyrimidin-4-yl)-N^1,N^2,N^2-trimethylethane-1,2-diamine]				269 to 270	8.75 ± 0.24	4.98 ± 0.04	6.96 ± 0.44	IC50 (PI3Kα): 3.31 ± 0.12 µM; IC50 (mTOR): > 10 µM
Cc1ccc(C2CC(c3ccc(Br)cc3)=NN2c2nc(N(C)CCN(C)C)c3ccsc3n2)cc1 (stereo not drawn) [Compound 13h, N ^1-(2-(3-(4-Bromophenyl)-5-(p-tolyl)-4,5-dihydro-1H-pyrazol-1-yl)thieno[2,3-d]pyrimidin-4-yl)-N^1,N^2,N^2-trimethylethane-1,2-diamine]				272 to 273	5.43 ± 0.17		4.45 ± 0.25	IC50 (PI3Kα): 7.16 ± 0.27 µM; IC50 (mTOR): > 10 µM
CN(C)CCN(C)c1nc(N2N=C(c3ccccc3)CC2c2ccccc2)nc2sccc12 (stereo not drawn) [Compound 13i, N ^1-(2-(3,5-Diphenyl-4,5-dihydro-1H-pyrazol-1-yl)thieno[2,3-d]pyrimidin-4-yl)-N^1,N^2,N^2-trimethylethane-1,2-diamine]				225 to 227	9.43 ± 0.1	5.04 ± 0.06	6.7 ± 0.14	
CS(=O)(=O)N1CCN(Cc2cc3nc(-c4cccc5[nH]ncc45)nc(N4CCOCC4)c3s2)CC1 [GDC-0941, reference compound]	6.99 ± 0.21	0.07 ± 0.03	0.2 ± 0.08			0.2 ± 0.08	0.07 ± 0.03	
N ^1-(2-(3-(3,4-Dichlorophenyl)-3-phenyl-4,5-dihydro-1H-pyrazol-1-yl)thieno[2,3-d]pyrimidine-4-yl)-N^1, N^2,N^2-trimethylethane-1,2-diamine [Compound 13e]								IC50 (A549 cancer cell lines [1]; [9]): 13.4 ± 0.29 µM; IC50 (MCF-7 cancer cell lines; [9]): 10.5 ± 0.54 µM; IC50 (HepG2 cancer cell lines; [9]): 8.05 ± 0.05 µM

Further lines, with some results ahead:

IC50 (A549 cancer cell lines [1]; [3]) [µM]	IC50 (MCF-7 cancer cell lines; [4]) [µM]	IC50 (HepG2 cancer cell lines; [5]) [µM]	melting point [°C]	IC50 (A549 cancer cell lines [1]; [6]) [µM]	IC50 (MCF-7 cancer cell lines; [7]) [µM]	IC50 (HepG2 cancer cell lines; [8]) [µM]	Compound	also measured
> 100	> 100	> 100	166.8 to 171.5				Cc1ccc(-c2ccnn2-c2nc(N3CCOCC3)c3sccc3n2)cc1 [Compound 4b, 4-(2-(5-(p-Tolyl)-1H-pyrazol-1-yl)thieno[3,2-d]pyrimidin-4-yl)morpholine]	
> 100	> 100	> 100	228 to 231				Fc1ccc(-c2ccnn2-c2nc(N3CCOCC3)c3sccc3n2)cc1 [Compound 4c, 4-(2-(5-(4-Fluorophenyl)-1H-pyrazol-1-yl)thieno[3,2-d]pyrimidin-4-yl)morpholine]	
37.6 ± 1.88	25.3 ± 0.93	20.2 ± 1.15	223 to 225				c1ccc(-c2ccnn2-c2nc(N3CCOCC3)c3ccsc3n2)cc1 [Compound 7a, 4-(2-(5-Phenyl-1H-pyrazol-1-yl)thieno[2,3-d]pyrimidin-4-yl)morpholine]	
> 100	> 100	> 100	202 to 205				Fc1ccc(-c2ccnn2-c2nc(N3CCOCC3)c3ccsc3n2)cc1 [Compound 7c, 4-(2-(5-(4-Fluorophenyl)-1H-pyrazol-1-yl)thieno[2,3-d]pyrimidin-4-yl)morpholine]	
> 100	> 100	> 100	280 to 282				Clc1ccc(-c2ccnn2-c2nc(N3CCOCC3)c3ccsc3n2)cc1 [Compound 7d, 4-(2-(5-(4-Chlorophenyl)-1H-pyrazol-1-yl)thieno[2,3-d]pyrimidin-4-yl)morpholine]	
			232 to 233				COc1ccc(C2CC(c3ccc(Cl)c(Cl)c3)=NN2c2nc(N(C)CCN(C)C)c3ccsc3n2)cc1 (stereo not drawn) [Compound 13a, N ^1-(2-(3-(3,4-Dichlorophenyl)-5-(4-methoxyphenyl)-4,5-dihydro-1H-pyrazol-1-yl)thieno[2,3-d]pyrimidin-4-yl)-N^1,N^2,N^2-trimethylethane-1,2-diamine]	
			244 to 247	9.17 ± 0.32	6.82 ± 0.17	7.27 ± 0.68	CN(C)CCN(C)c1nc(N2N=C(c3ccc(Cl)c(Cl)c3)CC2c2ccc(F)cc2)nc2sccc12 (stereo not drawn) [Compound 13d, N ^1-(2-(3-(3,4-Dichlorophenyl)-5-(4-fluorophenyl)-4,5-dihydro-1H-pyrazol-1-yl)thieno[2,3-d]pyrimidin-4-yl)-N^1,N^2,N^2-trimethylethane-1,2-diamine]	
				2.84 ± 0.09	2.88 ± 0.43	2.08 ± 0.36	COc1ccc(C2CC(c3ccccc3)=NN2c2nc(N(C)CCN(C)C)c3ccsc3n2)cc1 (stereo not drawn) [Compound 13f, N ^1-(2-(5-(4-Methoxyphenyl)-3-phenyl-4,5-dihydro-1H-pyrazol-1-yl)thieno[2,3-d]pyrimidin-4-yl)-N^1,N^2,N^2-trimethylethane-1,2-diamine]	inhibition of proliferation of A549 cancer cell lines (dose and time dependence) (A549 cancer cell lines [1]; several concentrations and exposure times, Fig. 3): dose-dependent and time-dependent; IC50 (PI3Kα): 0.92 ± 0.14 µM; IC50 (mTOR): > 10 µM; early apoptotic cells (A549 cells; A549, 1.6 μM, 24 h): 9.14%; late apoptotic cells (A549 cells; A549, 1.6 μM, 24 h): 7.68%; induction of apoptosis (Annexin V-FITC/PI) (A549 cells; A549, 0.2-1.6 μM): induce apoptosis in a concentration-dependent manner; induction of apoptosis (cell morphology, AO staining) (A549 cancer cell lines [2]): could induce apoptosis
			286 to 287			83.86 ± 0.17	COc1ccc(C2CC(c3ccc(F)cc3)=NN2c2nc(N(C)CCN(C)C)c3ccsc3n2)cc1 (stereo not drawn) [Compound 13j, N ^1-(2-(3-(4-Fluorophenyl)-5-(4-methoxyphenyl)-4,5-dihydro-1H-pyrazol-1-yl)thieno[2,3-d]pyrimidin-4-yl)-N^1,N^2,N^2-trimethylethane-1,2-diamine]	
			291 to 292	22.7 ± 0.35	18.39 ± 0.18	10.9 ± 0.2	CN(C)CCN(C)c1nc(N2N=C(c3ccc(Br)cc3)CC2c2ccc(F)cc2)nc2sccc12 (stereo not drawn) [Compound 13k, N ^1-(2-(3-(4-Bromophenyl)-5-(4-fluorophenyl)-4,5-dihydro-1H-pyrazol-1-yl)thieno[2,3-d]pyrimidin-4-yl)-N^1,N^2,N^2-trimethylethane-1,2-diamine]	
			261 to 262	22.95 ± 0.15	17.2 ± 0.48	15.8 ± 1.23	CN(C)CCN(C)c1nc(N2N=C(c3ccc(Br)cc3)CC2c2ccccc2)nc2sccc12 (stereo not drawn) [Compound 13l, N ^1-(2-(3-(4-Bromophenyl)-5-phenyl-4,5-dihydro-1H-pyrazol-1-yl)thieno[2,3-d]pyrimidin-4-yl)-N^1,N^2,N^2-trimethylethane-1,2-diamine]	
